The values that follow come from US6093838A, “Amines substituted with a dihydro-benzofuranyl or with a dihydro-isobenzofuranyl group, an aryl or heteroaryl group and an alkyl group, having retinoid-like biological activity” (Allergan Sales, Inc., priority 1999, dated 2000).

Assay [1] concerns the target T1, RXRβ (Mus musculus, UniProt P28704).
T1 construct: expressed in transfected cells
T1 sequence (P28704 1-520): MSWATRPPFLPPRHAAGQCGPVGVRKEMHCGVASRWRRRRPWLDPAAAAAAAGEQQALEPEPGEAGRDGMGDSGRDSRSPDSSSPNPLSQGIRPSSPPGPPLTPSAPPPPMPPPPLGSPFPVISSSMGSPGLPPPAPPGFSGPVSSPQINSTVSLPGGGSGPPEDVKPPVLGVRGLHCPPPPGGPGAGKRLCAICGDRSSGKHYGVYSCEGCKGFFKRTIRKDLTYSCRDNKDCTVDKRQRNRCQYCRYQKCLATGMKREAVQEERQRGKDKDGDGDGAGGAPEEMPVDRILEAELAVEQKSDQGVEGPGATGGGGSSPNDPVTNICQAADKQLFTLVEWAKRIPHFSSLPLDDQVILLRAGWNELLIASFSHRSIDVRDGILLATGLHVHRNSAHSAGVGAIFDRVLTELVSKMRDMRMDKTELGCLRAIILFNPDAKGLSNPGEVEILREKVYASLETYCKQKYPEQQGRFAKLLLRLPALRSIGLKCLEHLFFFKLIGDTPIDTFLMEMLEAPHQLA
Put plainly: holoreceptor transactivation assay, RXRβ. The assay is classed as cell-based. Particulars: for EC50: holoreceptor transactivation, RXRβ, read-out: RXR Trans. EC50 β; for Emax: relative to 10^-6 M cyclopropyl penta-2,4-dienoic acid reference (RXRs), read-out: % efficacy (RXRβ transactivation). From the text: (§1) Other assays described below, measure the ability of the compounds of the present invention to bind to, and/or activate various retinoid receptor subtypes. When in these assays a compound binds to a given receptor subtype and activates the transcription of a reporter gene through that subtype, then the compound is considered an agonist of that receptor subtype. […] In the below described assays the ability of the compounds to bind to RARα, RARβ, RARγ, RXRα, RXRβ and RXRγ receptors, and the ability or inability of the compounds to activate transcription of a reporter gene through these receptor subtypes can be tested. […] However, some of the compounds of the invention may behave as retinoid antagonists or partial antagonists and/or as inverse agonists. Because of the complex distribution of the different retinoid receptors in various organs of the mammalian body partial agonists and partial antagonists and compounds which have the characteristics of both may lend themselves to particularly useful therapeutic applications and may avoid serious side effects of conventional retinoid drugs.
(§2) A holoreceptor transactivation assay and a ligand binding assay which measure the antagonist/agonist like activity of the compounds of the invention, or their ability to bind to the several retinoid receptor subtypes, respectively, are described in published PCT Application No. WO WO93/11755 (particularly on pages 30-33 and 37-41) published on Jun. 24, 1993, the specification of which is also incorporated herein by reference. A detailed experimental procedure for holoreceptor transactivations has been described by Heyman et al. Cell 68, 397-406, (1992); Allegretto et al. J. Biol. Chem. 268, 26625-26633, and Mangelsdorf et al. The Retinoids: Biology, Chemistry and Medicine, pp 319-349, Raven Press Ltd., New York, which are expressly incorporated herein by reference. The results obtained in this assay are expressed in EC50 numbers, as they are also in the chimeric receptor transactivation assay. The results of ligand binding assay are expressed in Kd numbers. (See Cheng et al. Biochemical Pharmacology Vol. 22 pp 3099-3108, expressly incorporated herein by reference.)
(§3) Table 1 discloses the activity of certain exemplary compounds of the invention in the above-described chimeric receptor transactivation assay, holoreceptor transactivation assay and a ligand binding assays. Particularly, the transactivation data pertaining to RAR receptors were obtained in the chimeric assay, and the data pertaining to transactivation of RXR receptors were obtained in the holoreceptor transactivation assay.

Assay [2] deals with T2, RXRγ (Mus musculus, UniProt P28705).
T2 construct: expressed in transfected cells
T2 sequence (P28705 1-463): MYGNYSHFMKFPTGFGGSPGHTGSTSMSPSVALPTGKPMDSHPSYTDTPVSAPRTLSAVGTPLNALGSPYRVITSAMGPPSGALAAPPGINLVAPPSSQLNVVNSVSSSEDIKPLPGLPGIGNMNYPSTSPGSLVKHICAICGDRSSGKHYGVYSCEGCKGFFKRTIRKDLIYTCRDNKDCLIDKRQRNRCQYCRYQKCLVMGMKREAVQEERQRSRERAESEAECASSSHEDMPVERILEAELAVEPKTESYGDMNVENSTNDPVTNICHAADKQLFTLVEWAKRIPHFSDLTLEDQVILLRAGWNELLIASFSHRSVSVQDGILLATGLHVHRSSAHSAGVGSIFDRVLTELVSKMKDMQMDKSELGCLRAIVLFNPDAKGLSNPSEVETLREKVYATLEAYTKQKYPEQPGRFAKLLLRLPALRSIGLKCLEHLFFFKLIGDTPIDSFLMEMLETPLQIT
The assay is described as follows: holoreceptor transactivation assay, RXRγ. Type of assay: cell-based. Particulars: for EC50: holoreceptor transactivation, RXRγ, read-out: RXR Trans. EC50 γ; for Emax: relative to 10^-6 M cyclopropyl penta-2,4-dienoic acid reference (RXRs), read-out: % efficacy (RXRγ transactivation).
Excerpt: as §1, §2, §3

The target in assay [3] is T3, RARα (Homo sapiens, UniProt P10276).
T3 sequence (P10276 1-462): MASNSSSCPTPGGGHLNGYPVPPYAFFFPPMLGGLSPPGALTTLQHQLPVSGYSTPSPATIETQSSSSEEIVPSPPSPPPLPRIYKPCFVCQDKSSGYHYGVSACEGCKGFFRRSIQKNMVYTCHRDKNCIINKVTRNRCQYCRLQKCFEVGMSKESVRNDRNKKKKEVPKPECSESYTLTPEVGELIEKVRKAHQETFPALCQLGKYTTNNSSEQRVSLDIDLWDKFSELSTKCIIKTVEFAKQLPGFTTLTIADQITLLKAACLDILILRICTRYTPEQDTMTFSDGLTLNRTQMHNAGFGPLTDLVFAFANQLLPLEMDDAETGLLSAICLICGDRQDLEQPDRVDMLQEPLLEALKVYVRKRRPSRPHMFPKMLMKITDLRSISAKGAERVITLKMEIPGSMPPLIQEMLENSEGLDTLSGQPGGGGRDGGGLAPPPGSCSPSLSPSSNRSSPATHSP
Put plainly: ligand binding assay, RARα. The settings on record: read-out: RAR Bind. Ki α.
Excerpt: as §1, §2, §3

The target in assay [4] is T4, RXRα (Homo sapiens, UniProt P19793).
T4 construct: expressed in transfected cells
T4 sequence (P19793 1-462): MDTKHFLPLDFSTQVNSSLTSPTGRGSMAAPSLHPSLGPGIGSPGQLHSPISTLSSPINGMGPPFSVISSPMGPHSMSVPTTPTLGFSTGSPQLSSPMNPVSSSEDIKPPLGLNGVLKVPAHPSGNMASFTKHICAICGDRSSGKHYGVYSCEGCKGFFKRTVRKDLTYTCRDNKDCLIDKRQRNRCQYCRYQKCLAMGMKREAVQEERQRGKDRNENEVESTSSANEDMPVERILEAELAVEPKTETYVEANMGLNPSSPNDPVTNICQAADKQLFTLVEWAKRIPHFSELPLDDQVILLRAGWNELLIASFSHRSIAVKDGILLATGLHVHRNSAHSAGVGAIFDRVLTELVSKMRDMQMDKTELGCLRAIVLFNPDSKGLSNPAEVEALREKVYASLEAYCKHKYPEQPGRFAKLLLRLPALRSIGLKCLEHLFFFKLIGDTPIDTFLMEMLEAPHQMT
Put plainly: ligand binding assay, RXRα. Particulars: read-out: RXR Bind Ki α.
Excerpt: as §1, §2, §3

The term EC50 denotes the concentration needed to bring the measured effect to its halfway point. As usually defined, the Ki is a measure of affinity in units of concentration, obtained from inhibition or displacement. `CCN(c1ccc(C(=O)O)cc1)c1cc(C(C)C)c2c(c1)C(C)(C)CO2` [Compound 31, 4-[Ethyl-(3,3-dimethyl-7-isopropyl-2,3-dihydro-benzofuran-5-yl)-amino]-benzoic acid]: the EC50 in assay [1] is 1000 nM; in assay [2], 85 nM. The Emax in assay [1] worked out at 75%; in assay [2] it was 125%. Further, the Ki stood at 25000 nM in assay [3] and 1.8 nM in assay [4].

Consider `CC(C)N(c1ccc(C(=O)O)cc1)c1cc(C(C)(C)C)c2c(c1)C(C)(C)CO2` [Compound 44, 4-[Isopropyl-(7-t-butyl-3,3-dimethyl-2,3-dihydro-benzofuran-5-yl)-amino]-benzoic acid], for which the EC50 came to 171 nM in assay [1] and 20 nM in assay [2]. Further, the Emax came to 33% in assay [1] and 48% in assay [2]. In addition, the values for the Ki in assay [3] and in assay [4] were over 1000 nM and 11 nM, respectively.

For the compound `CCc1cc(N(CC)c2ccc(C(=O)O)cc2)cc2c1OCC2(C)C` [Compound 29, 4-[Ethyl-(3,3-dimethyl-7-ethyl-2,3-dihydro-benzofuran-5-yl)-amino]-benzoic acid], the EC50 in assay [1] worked out at 800 nM; in assay [2], 692 nM. Moreover, the figures for the Emax in assay [1] and in assay [2] were 70% and 130%, respectively. Besides, the results for the Ki in assay [3] and in assay [4] were over 10000 nM and over 1000 nM, respectively.

With `CC(C)c1cc(N(c2ccc(C(=O)O)cc2)C(C)C)cc2c1OCC2(C)C` [Compound 43], the EC50 in assay [1] amounted to 58 nM; in assay [2] it was 19 nM. For the same compound, the Emax in assay [1] was found to be 58%; in assay [2], 108%. Further, the Ki in assay [3] is over 10000 nM; in assay [4] it was over 1000 nM.
